Reference: US11649228B2, “Zinc indicators for cellular imaging” (The Board of Regents of the University of Texas System, priority 2018, dated 2023)

Assays:
[1] = Zn^2+ titration of ZIGIRs by fluorescence emission (Hill plot); assay type: binding
Protocol: UV-Vis spectra were recorded in a 1-cm path quartz cell on a Shimadzu 2401 PC spectrometer. Fluorescence excitation and emission spectra were recorded on a Fluorolog 3 spectrometer (Jobin-Yvon Horiba, Edison, N.J.). Zinc titration was performed by adding ZIGIRs (0.5 μM final concentration) to buffered Zn^2+ solutions containing 100 mM HEPES (pH 7.4). Nitrilotriacetic acid (NTA, 10 mM) and varying concentrations of ZnSO4 (0-9 mM) were mixed to reach free Zn^2+ concentrations between 0.1 nM and 40 nM (Li et al., 2011). Zn^2+ concentrations above 40 nM were controlled by iminodiacetate (IDA, 10 mM) and varying amounts of ZnSO4 (0-9.7 mM) in 100 mM HEPES (pH 7.4; Sasaki et al., 2011). To determine Zn^2+ binding dissociation constants (Kd(Zn^2+)), the Zn^2+ titration data were fitted to the least square exponential equation (Prism 7). Fluorescence quantum yields of ZIGIRs at pH 7.5 were determined using rhodamine 6G as the reference (Φfl=0.94 in MeOH; Magde et al., 2002). An example in shown FIGS. 11A0B. To examine the pH sensitivity of ZIGIRs, the fluorescence emission spectra was recorded from pH 3-9.4 in either nominally Zn^2+-free solutions containing 5 mM iminodiacetate or in 25 μM ZnSO4 solutions. The pH was controlled with 10 mM pH buffers including chloroacetic acid (pH 3.1), acetate (pH 4.1 and 5.0), 2-morpholinoethanesulfonic acid (MES, pH 6.14), HEPES (pH 7.5) and N-cyclohexyl-2-aminoethanesulfonic acid (CHES, pH 9.4).

[2] = system: human islet endocrine cells; test: Flow cytometry analysis and sorting of human islet cells with ZIGIR-2; assay type: cell-based; conditions: ZIGIR-2, HPi2 and TM4SF4 labeling
Excerpt: Thus far the majority of studies on ZnT8 and Zn^2+ signaling have been carried out in mouse islet cells, and less is known about the expression of ZnT8 and Zn^2+ distribution in human islet endocrine cells. To analyze granular Zn^2+ activity in human islets by flow cytometry, the inventors dispersed human islets into single cells and sequentially labeled them with ZIGIR-2 and antibodies reactive towards human pancreatic endocrine cells and α-cells (FIG. 12A), including the HPi2 antibody (Dorrell et al., 2008) and an antibody of a tetraspanin family member protein TM4SF4 (Muraro et al., 2016), respectively. The islet endocrine cells (HPi2+, FIG. 13) contained a subset of cells showing high ZIGIR-2 signal and low TM4SF4 expression (P1 subset, FIG. 12B). Immunofluorescence analysis of the sorted cells confirmed that the P1 subset was highly enriched with human β-cells (91%), together with a small percent of δ-cells (FIG. 12C). […] They obtained similar flow cytometry results from different human donors and confirmed high enrichments of β-cell or α-cell in P1 or P2 subset (including P2a and P2b), respectively (FIG. 14). […] In addition to containing more glucagon granules, P2a cells might also express more ZnT8 protein than P2b. Future studies using more quantitative techniques such as western blot should help address the issue.

MIN-6 cells = test: Correlation of ZIGIR-2 labeling with insulin immunofluorescence; assay type: cell-based, mouse; conditions: wide-field microscopy
Protocol: Confocal imaging of ZIGIR-2 labeled MIN-6 cells appeared to be heterogenous, with numerous ZIGIR-2 positive puncta in some cells while few in others (FIG. 6B). The MIN-6 cell is a transformed β-cell line derived from a mouse insulinoma. […] To investigate how ZIGIR-2 staining correlates with the distribution of insulin granules, insulin immunofluorescence was performed on the same MIN-6 cells after ZIGIR-2 imaging. […] To further analyze MIN-6 cells that were differentially labeled with ZIGIR-2, and to address whether ZIGIR-2 staining correlated with other cellular organelles, MIN6 cells were separated into ZIGIR-2-High and ZIGIR-2-Low subsets based on ZIGIR-2 fluorescence intensity using fluorescence-activated cell sorting (FACS; FIG. 7E). The sorted cells were then compared by immunofluorescence using antibodies against insulin, NPC-1 (a marker protein of late endosome/lysosome; Patel et al., 1999 and Higgins et al., 1999), or GM130 (a Golgi marker protein; Nakamura et al., 1995). […]
To correlate the intensity of ZIGIR-2 labeling and cellular insulin content by imaging, MIN-6 cells were first labeled and seeded on a 35 mm MatTek glass dish with ZIGIR-2. Cells were then imaged on a wide field fluorescence microscope (Axiovert 200, Carl Zeiss) equipped with an EMCCD camera (iXon 897, Andor) through a 40× oil objective. […]

## CN(C)c1ccc2c(-c3ccc(NCCN(CCc4ccccn4)Cc4ccccn4)cc3C(=O)[O-])c3ccc(=[N+](C)C)cc-3oc2c1 [ZIGIR-2]
[1]
  FC (fold change in fluorescence brightness ϕfl×ε from Zn^2+-free to Zn^2+-bound state): 34
[1]; 100 mM HEPES pH 7.4
  Kd: 310 nM
[1]; Table 2
  Kd: 810 nM
  Zn^2+ response (fold change): 34×
[2]
  α-cell purity of sorted P2a and P2b subsets: > 95%
  β-cells in sorted P1 subset: 91%
MIN-6 cells
  Pearson's R value of cellular ZIGIR-2 intensity versus insulin immunofluorescence: 0.79±0.05
